Data set [1] can be described thus: Selectivity index, ratio of IC50 for cytotoxicity against HUVEC to IC50 for cytotoxicity against human MNNG cells. The class given is toxicity, cell-based. The following applies: HUVEC and human MNNG cells, read-out: Ratio IC50.
Data set [2] is described as follows: Cytotoxicity against HUVEC assessed as cell growth inhibition measured after 72 hrs by MTT assay. The conditions noted are these: human, HUVEC cells. Type of data set: toxicity, cell-based. (In general: Tetrazolium dyes change colour on reduction, which living cells bring about.)
A short description of data set [3]: Toxicity in human MNNG cell xenografted Balb/c mouse assessed as body weight loss at 30 mg/kg, iv administered every 2 days for 3 weeks and measured every other day during compound dosing. Type of data set: organism-based. The following applies: in vivo, 504 h, time 21 day. For orientation: In xenograft studies the graft and the host belong to different species.

Data set [4] deals with HOS-TE85. In words: Cytotoxicity against human MNNG cells assessed as cell growth inhibition measured after 72 hrs by MTT assay. Type of data set: functional, cell-based. The following applies: HOS-TE85, 72 h.
Data set [5] concerns HOS-TE85. In words: Antitumor activity against human MNNG cells xenografted in Balb/c mouse assessed as tumor growth inhibition at 30 mg/kg, iv administered every 2 days for 3 weeks and measured daily during compound dosing relative to control. The class given is functional. The conditions noted are these: HOS-TE85, 504 h, time 21 day, read-out: TGI.
The nature of data set [6]: Toxicity in human MNNG cell xenografted Balb/c mouse assessed as reduction in Cr level at 30 mg/kg, iv administered every 2 days for 3 weeks and measured post last dose. Type of data set: organism-based. The following applies: in vivo, 504 h, time 21 day.
A short description of data set [7]: Toxicity in human MNNG cell xenografted Balb/c mouse assessed as reduction in AST level at 30 mg/kg, iv administered every 2 days for 3 weeks and measured post last dose. The conditions noted are these: in vivo, 504 h, time 21 day. The class given is organism-based.

One may read the IC50 as the concentration that gives 50% inhibition.

Take `CC1(C)CCC2=C(O1)c1ccccc1C(=O)C2=O` [LAPACHONE]: the selectivity ratio in data set [1] was found to be 5.16. Also, in data set [2], the 50% inhibitory concentration (IC50) at 72 h stood at 12.5 µM. The results for the Activity entry in data set [3], in data set [6] and in data set [7] were “Non-toxic”, “Toxic” and “Toxic”, respectively. The IC50 with HOS-TE85 [4] amounted to 2.42 µM. In addition, in the data set with HOS-TE85 [5], the inhibition in vivo at 30 mg/kg was 58.9%.

Values taken from ChEMBL document CHEMBL6109124, “Identification of effective anti-osteosarcoma agents via screening of an in-house NQO1-targeted compound library” (Bioorg Med Chem, 2025).
